Source: patent US9127164B2, “Fluorescent dyes and uses thereof” (ALMAC SCIENCES (SCOTLAND) LIMITED, priority 2005, dated 2015)
Read-outs that look alike come from different tables or passages of the source. One block for each compound: values may come before it. Peptide text beside a SMILES is read from it. * marks the point of attachment. Propanoyl(3-(9AA-2-yl)) = Nc1c2ccccc2nc2ccc(CCC(=O)*)cc12

Experiments:
[1] = Fluorescence lifetime by time-correlated single photon counting (Edinburgh Instruments FLS920); assay type: physicochemical; settings: for Lifetime* (ns): Table 3, molecules synthesised; for Lifetime (ns): Table 2, 9-aminoacridine derivatives; for Fluorescence Lifetime (nsecs) in PBS pH 7.4: excited at 405 nm, detection at 450 nm, 10 mM phosphate buffered saline pH 7.4
Procedure: Fluorescence lifetimes were determined by time-correlated single photon counting using an Edinburgh Instruments FLS920 fluorimeter. Samples were excited at 405 nm with detection at 450 nm. Measurements were recorded in 10 mM phosphate buffered saline pH 7.4.
Excitation wavelength 405 nm and emission wavelength 450 nm.

[2] = Fluorescence emission spectra / intensity; assay type: physicochemical; settings: for Relative intensity Ex405 nm, Emmax: relative to 9-aminoacridine = 1; for fluorescence emission intensity compared with N-methyl acridone: excitation at 405 nm, 140 mM NaCl, 10 mM phosphate buffer pH 7.4
Procedure: Fluorescence emission spectra of 10-methyl-9(10H)-thioacridone (N-methyl thioacridone) and 10-methyl-9(10H)-acridone (N-methylacridone) in 140 mM NaCl, 10 mM phosphate buffer pH 7.4 upon excitation at 405 nm, were obtained. The thioacridone concentration is 500 nM and the 10-methyl-9(10H)-acridone (N-methylacridone) concentration is 100 nM.
Fluorescence emission spectra of 9-aminoacridine and 10-methyl-9(10H)-acridone (N-methylacridone) upon excitation at 405 nm. Both compounds at a concentration of 100 nM in 140 mM NaCl, 10 mM phosphate buffer pH 7.4, were obtained.
Fluorescence emission spectrum of (Acridin-9-ylamino)acetic acid ethyl ester at 100 nM concentration in 140 mM NaCl, 10 mM phosphate buffer pH 7.4 upon excitation at 405 nm is shown in FIG. 4.

[3] = Fluorescence emission spectra / intensity; assay type: physicochemical
[4] = molecular target: T1, Caspase-3 recombinant enzyme (Homo sapiens, UniProt P42574); assay: Fluorescence lifetime based Caspase-3 cleavage assay of dye-labelled DEVDSW peptide; assay type: biochemical; settings: 1 uM substrate
T1 construct: purchased Calbiochem
T1 sequence (P42574 29-175 limits assumed): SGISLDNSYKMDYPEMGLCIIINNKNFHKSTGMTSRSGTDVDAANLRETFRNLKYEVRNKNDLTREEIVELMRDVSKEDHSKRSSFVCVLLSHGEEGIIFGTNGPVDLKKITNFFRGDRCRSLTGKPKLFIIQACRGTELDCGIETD
T1 sequence (P42574 176-277 limits assumed): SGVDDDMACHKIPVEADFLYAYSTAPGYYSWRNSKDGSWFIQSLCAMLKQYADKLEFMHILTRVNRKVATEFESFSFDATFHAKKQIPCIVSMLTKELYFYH
Procedure: The 9-aminoacridine labelled peptide substrate, AA-DEVDSW (1 uM concentration in […] buffer pH 7.4 containing 10% sucrose, 0.1% CHAPS, 100 mM NaCl, 1 mM EDTA, 10 mM DTT) was employed in a biochemical assay using Caspase-3 recombinant enzyme (50 U and 20 U) at 30° C. The assay mixture was analysed at time intervals using an Edinburgh Instruments Fluorescence Lifetime Plate Reader. […] The data could also be easily viewed as a change in percentage cleavage over time, confirming that the reaction was progressing to completion after 90 minutes when 50 units of caspase 3 was employed (see FIGS. 8 and 9).
• Buffer: 20 mM HEPES buffer pH7.4 containing 10% sucrose, 0.1% CHAPS, 100 mM NaCl, 1 mM EDTA, 10 mM DTT • Substrate solution: 10 uM 3-(9-aminoacridin-2-yl) propionyl-DEVDSW in buffer. • Product solution: 10 uM 3-(9-aminoacridin-2-yl) propionyl-DEVDSK in buffer. • Enzyme solution: 10 U/ul in buffer. Procedure
To the well of a 96-well plate was added buffer (88 ul), substrate solution (10 ul, 1 uM final conc.) and enzyme (2 ul for 20 U). Reactions were performed in triplicate and also at varying enzyme concentrations. The reaction progress was followed at time intervals using an Edinburgh Instruments Fluorescence Lifetime Plate Reader against wells containing product and substrate standards.
The partially quenched 9-aminoacridine-labelled peptide substrate, 3-(9-aminoacridin-2-yl) propionyl-DEVDSW, was employed in a biochemical enzymatic cleavage assay using recombinant Caspase-3 enzyme purchased from Calbiochem. The assay was carried out using 1 uM substrate concentration in 20 mM HEPES buffer pH 7.4 containing 10% sucrose, 0.1% CHAPS, 100 mM NaCl, 1 mM EDTA, 10 mM DTT, in the presence of either 20 or 50 units of enzyme (100 ul final volume). The assay mixture was analysed at time intervals using an Edinburgh Instruments Fluorescence Lifetime Plate Reader. […] The deviation in fluorescence lifetime from that stated above was a consequence of the buffer system.

[5] = 20 mM HEPES buffer pH 7.4, 20 or 50 units of enzyme

SMILES: CC(C)(C)OC(=O)CCc1ccc2nc3ccccc3c(N)c2c1 [3-(9-amino-acridin-2-yl)-propionic acid tert-butyl ester]
- fluorescence properties (emission spectrum, intensity, lifetime) compared with 9-aminoacridine [2]: comparable to the parent 9-aminoacridine
- Lifetime* (ns) [1]: 16.7 ns

SMILES: Nc1c2ccccc2nc2ccc(CCC(=O)O)cc12 [3-(9-amino-acridin-2-yl)-propionic acid]
- fluorescence properties (emission spectrum, intensity, lifetime) compared with 9-aminoacridine [2]: comparable to the parent 9-aminoacridine
- Lifetime* (ns) [1]: 17.0 ns

SMILES: CC(C)(C)OC(=O)/C=C/c1ccc2nc3ccccc3c(N)c2c1 [3-(9-Amino-acridin-2-yl)-acrylic acid tert-butyl ester]
- Lifetime* (ns) [1]: 11.2 ns

SMILES: CC(C)[C@H](NC(=O)[C@H](CCC(=O)O)NC(=O)[C@H](CC(=O)O)NC(=O)CCc1ccc2nc3ccccc3c(N)c2c1)C(=O)N[C@@H](CC(=O)O)C(=O)N[C@@H](CO)C(=O)N[C@@H](Cc1c[nH]c2ccccc12)C(=O)O [3-(9-Amino-acridin-2-yl)-propionyl-DEVDSW] ({Propanoyl(3-(9AA-2-yl))}-DEVDSW-OH)
- fluorescence intensity quenched by tryptophan ([3]; tryptophan (W) containing labelled peptide versus lysine (K) containing labelled peptide): 75%
- fluorescence lifetime [1]: 7.6 ns
- Lifetime* (ns) [1]: 7.7 ns
- fluorescence lifetime of reaction mixture after cleavage [4, 5]: 15.5 ns
- fluorescence lifetime of reaction mixture at start of reaction [4, 5]: 8.5 ns
- time at which cleavage reaction was progressing to completion ([4]; 50 units of caspase 3 enzyme, 20 mM HEPES buffer pH 7.4): 60 min

SMILES: CC(C)[C@H](NC(=O)[C@H](CCC(=O)O)NC(=O)[C@H](CC(=O)O)NC(=O)CCc1ccc2nc3ccccc3c(N)c2c1)C(=O)N[C@@H](CC(=O)O)C(=O)N[C@@H](CO)C(=O)N[C@@H](CCCCN)C(=O)O [3-(9-Amino-acridin-2-yl)-propionyl-DEVDSK] ({Propanoyl(3-(9AA-2-yl))}-DEVDSK-OH)
- fluorescence properties (emission spectrum, intensity, lifetime) compared with 9-aminoacridine [2]: comparable emission spectrum and fluorescence intensity to that of 9-aminoacridine
- fluorescence lifetime [1]: 17.7 ns
- Lifetime* (ns) [1]: 17.7 ns

SMILES: CC(=O)Nc1ccc2nc3ccc(N)cc3c(N)c2c1 [Number 7]
- Relative intensity Ex405 nm, Emmax [2]: Not fluorescent
- Lifetime (ns) [1]: multiexponential

The next lines start with the values.

- fluorescence lifetime ([1]; Excitation wavelength 405 nm and emission wavelength 450 nm): 14.9 ns
SMILES: CCOC(=O)CNc1c2ccccc2nc2ccccc12 [(Acridin-9-ylamino)acetic acid ethyl ester]

- Relative intensity Ex405 nm, Emmax [2]: 1
- fluorescence emission intensity compared with N-methyl acridone [2]: considerably brighter
- Lifetime (ns) [1]: 15 ns
- Fluorescence Lifetime (nsecs) in PBS pH 7.4 [1]: 16.0 nsecs
SMILES: Nc1c2ccccc2nc2ccccc12 [Number 1, 9-aminoacridine, reference compound]

- Fluorescence Lifetime (nsecs) in PBS pH 7.4 [1]: 13.9 nsecs
SMILES: Cn1c2ccccc2c(=O)c2ccccc21 [N-methyl acridone, 10-methyl-9(10H)-acridone, reference compound]

- Relative intensity Ex405 nm, Emmax [2]: Not fluorescent
- fluorescence (in words) ([3]; free amino dye, no acetylation): non-fluorescent
- Lifetime (ns) [1]: Not fluorescent
SMILES: Nc1ccc2nc3ccccc3c(N)c2c1 [Number 6]

- fluorescence emission intensity compared with N-methyl acridone [2]: considerably less fluorescent
SMILES: Cn1c2ccccc2c(=S)c2ccccc21 [N-methyl thioacridone, 10-methyl-9(10H)-thioacridone, reference compound]
